The results in this text go back to EP1501797B1, “3-(SUBSTITUTED AMINO)-1H-INDOLE-2-CARBOXYLIC ACID ESTER AND 3-(SUBSTITUTED AMINO)-BENZO[B]THIOPHENE-2-CARBOXYLIC ACID ESTER DERIVATIVES AS INTERLEUKIN-4 GENE EXPRESSION INHIBITORS” (Aventis Pharmaceuticals Inc., priority 2002, dated 2003).

pIC50: −log10 of the molar value. Several values for one entry are separate records, joined by “and”; a condition that tells them apart may be missing. Equal values may be shown once. Read-outs that look alike come from different tables or passages of the source. A value given as a limit tells only on which side of the number the result lay.

For one assay, the system named is Human primary Th1 cells. Briefly: Human primary Th1 (NYTh1) cells, proliferation (MTS assay). The conditions noted are these: data from 8 different experiments combined. Format: cell-based. The method, then: Briefly, CD4^+CD45RA^+ T cells, isolated from donor peripheral blood mononuclear cells of healthy donors, are educated in the presence of anti-CD3/CD28 antibodies and various growth factors to obtain either a Thl-like or Th2-like phenotypes as determined by the known cytokine profiles of these two cell types.
Generation of Th1/Th2 cells: Twenty four well plates are coated with 300 µL anti-CD3 Ab (10 µg/ml, in PBS 1-2 h at 37°C or overnight at 4°C), and washed two times with PBS. CD4^+/CD45RA^+ cells at a density of 10^6/ml in RPMI, is prepared and added to RPMI medium containing 10% Hyclone serum/ glutamine and 1-2 µg/ml anti-CD28 Ab. The cells are split in two aliquots. […] The degree of polarization is determined by intracellular staining of cells with anti-IFN-γ and anti-IL-4 antibodies from Pharmingen, and using flow cytometry from Becton Dickinson (BD), according to manufacturers description. […] For compound testing, large quantities of Th1 and Th2 cells derived from a given donor (NYTh1 and NYTh2) were expanded and frozen as aliquots in liquid nitrogen. […]
Re-stimulation by allogeneic cells: Human PBMCs, to be used as alloantigens, are isolated from freshly drawn blood by Ficoll separation. […] Cells are counted and diluted to a final concentration of 2 x 10^6/ml in medium containing 10 µg/ml PHA and 200 units/ml IL-2. […]

The subject of a further assay is human IFN-γ promoter. Briefly: IFN-γ Luc assay in Jurkat cells. The conditions noted are these: Jurkat cell line; concentration not given; 480 min. Format: cell-based.
For a further assay, the system named is IL-4 mRNA. Briefly: Human Th2 IL-4 transcriptional assay (Taqman, GAPDH normalised). Format: cell-based. The conditions noted are these: 18 hours, stimulated CD3/CD28 = 100%. The protocol: RNAs were isolated from the harvested cells and analyzed for IL-4 message by Taqman. GAPDH message was used as an internal standard for normalization. The percent activity was calculated by treating the values from not drug treated, anti-CD3 and anti-CD28 stimulated Th2 cells as 100%. […] In the second experiment IL-4 protein levels were also determined by standard ELISA in culture supernatants as described earlier. […]
On the technique in general: Quantitative PCR measures a nucleic acid by following its amplification.

The test system of a further assay is IgG2a Anti-DNP Antibody. Description: In vivo model of humoral immunity in mice (DNP-KLH), IgG2a anti-DNP antibody. The protocol:
Female Balb/c mice, each weighing approximately 20 to 25 grams each, aged 5 to 8 weeks are used. Each experiment uses 30 mice.
The antigen for immunization is 2,4-dinitrophenyl (DNP) or 2,4,6-trinitrophenyl (TNP) conjugated to keyhole limpet haemocyanin (KLH). The antigen (100 µg/mouse) is adsorbed to an adjuvant (colloidal aluminum hydroxide) and given i.p. to animal in a total volume of 0.2-0.3 ml.
Animals are randomly divided into 5 groups of 6 mice each. Group 1 is a positive control group, Groups 2, 3, and 4 are test compound groups, and Group 5 is a vehicle control group. Compounds may be given by i.n., i.p., p.o., s.c., i.m. or i.v. administration. […] On day 8 after the immunization, mice are bled by cardiac puncture under anesthesia (isoflurane), and the serum samples are stored at -20°C until required for antibody analysis. The anesthetized animals are euthanized with overdosage of sodium pentobarbital at the end of experiment. Statistical analysis of the data are performed using ANOVA.
Mice are immunized with a hapten carrier conjugate, DNP-KLH, and anti-DNP antibody levels are determined in a isotype specific manner as described above. […]

Protocol for human IFN-γ promoter: Jurkats containing 2.3IFN-γ Luc (monoclonal lines) were plated at a density of 50,000 cells in 120 µl per well, and grown for 16 hours. The cultures were then stimulated with 10 ng/ml of phorbol 12-myristate 13-acetate (PMA) and 1.0 µm calcium ionophore A23187 in 10 µl of media for 8 hours. The stimulation process was terminated by the addition of 50 µls of 1x lysis buffer (25 mM Tris Phosphate, pH 7.8, 2.0 mM DTT, 2 .0 mM EDTA, 100 ml/L glycerol, 1.0% Triton X-100 (v/v)). The cells were incubated in the presence of lysis buffer for 5 minutes, pipetted up and down, 5x, to ensure complete lysis. A 100 µl aliquot of the cell lysate was transferred to white luminometer plates (Dynatech) and assayed for luciferase activity with a Dynatech luminometer.
In order to use this assay to screen for agonists or antagonists from a chemical library, desired doses of a compound were added directly along with PMA/ A23187 mix.

For orientation: pIC50 means the negative decadic logarithm of the IC50, by convention in mol/L. Turning to `O=C(O)c1[nH]c2ccccc2c1Nc1ccncc1` [Example 28, 3-(4-Pyridinylamino)-1H-indole-2-carboxylic acid], in the assay with Human primary Th1 cells, the pIC50 was under 5.00. Besides, the “2.7-IFN-γ -Luc (% of control)” value with human IFN-γ promoter is recorded as 100 ± 15 % of control. Besides, the mrna remaining at 10 µM with IL-4 mRNA (read-out: RNA Exp #1 % activity) worked out at 44%; in the assay on IL-4 mRNA (read-out: RNA Exp #2 % activity), 45%. Further, the “IgG2a Anti-DNP Antibody Titer” value in the assay on IgG2a Anti-DNP Antibody (individual animals 1-6, dose not stated) was 30.59 and 38.60 and 14.09 and 17.45 and 30.21 and 27.98. Besides, the “IgG2a Anti-DNP Antibody Titer Mean+/-SE” value in the assay on IgG2a Anti-DNP Antibody (vehicle 30.47 +/-2.37, dose not stated) is reported as 26.49 +/-3.72. Further, in the assay on IgG2a Anti-DNP Antibody (versus vehicle), the “IgG2a Anti-DNP Antibody Titer Inhibition” value came to 13%.
